Data as given in patent US7491714B2 (dated 2009).

Row | melting point [°C] | SMILES
1 | 150 to 155 | COc1ccc2nccc([C@@H]3CN(CCCNS(=O)(=O)c4ccc5c(c4)NC(=O)CO5)C(=O)O3)c2c1
2 | 128 to 130 | COc1ccc2nccc([C@@H]3CN(CCCNS(=O)(=O)c4ccc5c(c4)NC(=O)CCS5)C(=O)O3)c2c1
